Laboratory results taken from article PMC4195672, “The Red Imported Fire Ant (Solenopsis invicta Buren) Kept Y not F: Predicted sNPY Endogenous Ligands Deorphanize the Short NPF (sNPF) Receptor” (PLoS ONE, 2014).
“Also recorded” adds a separate entry of the source.

Legend:
[1] = system: S. invicta sNPF receptor (HA-tagged, stably expressed in CHO-K1 cells); assay: Inhibition of forskolin-stimulated intracellular cAMP in SisNPFR-C6E8 cell line (cAMP EIA); type: cell-based, Solenopsis invicta; settings: for Activity on the receptor (change of forskolin-stimulated cAMP), result in words: forskolin 10 µM, peptide at 1 µM (analogous sNP(F) tested at 10 nM and 1 µM), three biological replicates; for EC50: 50 µM Ro-20-1724, forskolin 10 µM with 0-10 µM peptide (10 concentrations), 1 h, 37°C, three independent biological replicates
Method: For the functional characterization of S. invicta sNPFR, stably transformed cell lines were established as described. In brief, CHO-K1 cells were obtained from the American Type Culture Collection (ATCC, Manassas, VA, USA) and grown as described in a 5% CO2 humidified incubator at 37°C. For transfection, CHO-K1 cells were seeded into T-25 tissue culture flasks and allowed to grow overnight until 50% confluent. Cells were transfected in serum-free Opti-MEM medium (Life Technologies, Gaithersburg, MD, USA) with the cationic lipid reagent Lipofectin (Life Technologies) (6 µl) and 2 µg of the expression construct according to the manufacturer’s protocol. After 6 h, the lipofectin-containing medium was removed and replaced with F12K (Sigma, St. Louis, MO, USA) medium plus 10% fetal bovine serum (EquiTech Bio, Kerrville, TX, USA) without antibiotic. After 48 h of growth, the cells were split into the same medium but with antibiotic Geneticin (Invitrogen) (800 µg/ml), and selection continued for 5 weeks followed by isolation of clonal lines. A total of 14 clonal cell lines were obtained by dilution and selection of single cells distributed in a 96-well plate (96 theoretical single cells). Presence of S. invicta sNPFR transcript was verified by screening by RT-PCR by pooling aliquots from clonal cell lines. For this, total RNA was isolated by RNeasy Mini kit (Qiagen) and used for cDNA synthesis with SuperScript III First-Strand Synthesis System followed by RT-PCR with receptor forward sNPFRf1 and reverse sNPFRr1 primers (Table S1). The cell lines from groups that generated the RT-PCR product of the expected size were further screened. Single positive clonal cell lines were subjected to functional assay using S. invicta sNPF1 and sNPF2 as ligands. Cell line C6 was further selected to obtain a line designated SisNPFR-C6E8, which was the best performing cell line and was chosen for receptor functional characterization.
To quantify changes in intracellular cAMP, 1×10^5 cells of SisNPFR-C6E8 were seeded in each well of a 6-well plate and incubated at 37°C in presence of 5% CO2 for 24 h to allow cell attachment. Cell culture medium [F12 K medium with 10% fetal bovine serum and 400 µg/ml of Geneticin] was then replaced with the same fresh medium as above and the cells were grown for additional 48 h until they reached 90–100% confluence. The cells were rinsed twice with F12 K medium only (serum and antibiotic free) and then incubated in 50 µM Ro-20-1724 phosphodiesterase inhibitor (Santa Cruz Biotechnology, Santa Cruz, CA, USA) in F12 K medium. Forskolin (10 µM) (Cayman Chemical, Ann Arbor, MI, USA) or forskolin (10 µM) with 0–10 µM solutions of ligands (10 concentrations), respectively, were added to the cells and incubated at 37°C in the presence of 5% CO2 for 1 h. Cells were rinsed once with F12 K medium, serum- and antibiotic-free, followed by lysis with 274 µl of 0.1 M HCl at RT for 20 min and centrifugation at 1000 g for 10 min. The supernatant was used for cAMP measurements using the cyclic AMP EIA Kit (Cayman Chemical) following the manufacturer’s protocol. In brief, 50 µl of supernatants and cAMP standards were loaded in a 96-well plate, and the cAMP EIA buffer was used as blank. cAMP AChE tracer (50 µl) (cAMP bound to acetylcholinesterase for competition) and 50 µl of anti-cAMP specific antiserum were added. Then the mixture was incubated at 4°C for 18 h. The mixture was removed and the plate was rinsed five times with wash buffer containing 0.05% polysorbate-20. After washing, the plate was developed at RT for 2 h using the Ellman’s reagent and the OD (412 nm) was measured in a VersaMax tunable microplate reader (Molecular Devices, Sunnyvale, CA, USA). cAMP level was calculated using Cayman provided formulas and aided by software located at http://www.myassays.com/(MyAssays Ltd., Haywards Heath, West Sussex, UK) for the output standard line graph and cAMP concentration calculations. […]

[2] = system: S. invicta sNPF receptor (SisNPFR-C6E8 cell line); assay: Pilot study: stimulation of intracellular cAMP production in SisNPFR-C6E8 cell line; type: cell-based, Solenopsis invicta
Method: To quantify changes in intracellular cAMP, 1×10^5 cells of SisNPFR-C6E8 were seeded in each well of a 6-well plate and incubated at 37°C in presence of 5% CO2 for 24 h to allow cell attachment. Cell culture medium [F12 K medium with 10% fetal bovine serum and 400 µg/ml of Geneticin] was then replaced with the same fresh medium as above and the cells were grown for additional 48 h until they reached 90–100% confluence. The cells were rinsed twice with F12 K medium only (serum and antibiotic free) and then incubated in 50 µM Ro-20-1724 phosphodiesterase inhibitor (Santa Cruz Biotechnology, Santa Cruz, CA, USA) in F12 K medium. […] After washing, the plate was developed at RT for 2 h using the Ellman’s reagent and the OD (412 nm) was measured in a VersaMax tunable microplate reader (Molecular Devices, Sunnyvale, CA, USA). cAMP level was calculated using Cayman provided formulas and aided by software located at http://www.myassays.com/(MyAssays Ltd., Haywards Heath, West Sussex, UK) for the output standard line graph and cAMP concentration calculations. […] For this, the average absorbance readings for non-specific binding (NSB) and B0 wells were obtained, and the NSB average was deducted from the B0 average to generate the corrected B0 maximum binding value. […] The cAMP concentration of each sample was determined on the basis of the standard curve. […]

| Substance | Activity on the receptor (change of forskolin-stimulated cAMP), result in words [1] | Activity on the receptor (change of forskolin-stimulated cAMP), result in words ([1]; listed as honey bee long NPF (NPY)) | Stimulation of intracellular cAMP production (without forskolin), result in words [2] | EC50 [1] [nM] |
| --- | --- | --- | --- | --- |
| SPSLRLRFa [Drome sNPF212–19] | not active1 µM |  |  |  |
| AQRSPSLRLRFa [Drome sNPF1, Drosophila melanogaster sNPF peptide (AAN11060.1)] | not active1 µM |  |  |  |
| EPEPMARPTRPEIFTSPEELRRYIDHVSDYYLLSGKARYa [Apime NPY, Honey bee (A. mellifera) NPY, long NPF (NP_001161192.1), commercially synthesized] | failed to change the cAMP production; also recorded: not active1 µM | not activated |  |  |
| WFGDVNQKPIRSPSLRLRFa [Drome sNPF2, Drosophila melanogaster sNPF peptide (AAN11060.1)] | not active1 µM |  |  |  |
| SLRSALAAGHLRFa [Analogous sNP(F), Analog of S. invicta sNPF1 with C-terminal amidated Y switched to F] | eliminates the ligand activity on the receptor |  |  |  |
| SLRSALAAGHLRYa [S. invicta sNPF1] | decreased cAMP |  | did not stimulate production of intracellular cAMP | 3.28 |
| SALAAGHLRYa [S. invicta sNPF2] |  |  | did not stimulate production of intracellular cAMP | 8.6 |
